Laboratory results from patent publication US20230414759A1, “NOVEL CYCLIC PEPTIDES BASED ON NANOBIOSTRUCTURAL CONTROL, PEPTIDESOMES WITH CORE/SHELL STRUCTURE COMPRISING SAME, AND USES THEREOF” (UIF (University Industry Fpimdatopm), Yonsei University, priority 2022, published 2023).

Legend:
[1] = Average hydrodynamic diameter of peptidesomes by DLS at different temperatures; type: physicochemical; details: distilled water, 20-40° C.
Experimental: The size of self-assembled nanoparticles (SNPs) was analyzed by a dynamic light scattering size distributor (particle size & zeta potential analyzer, ELS-1000ZS, Otsuka Electronics, Japan) using a UV-transparent cuvette having a path length of 1 cm. The secondary structure of the cyclic peptides of SPNs was analyzed using a Chirascan circular dichroism spectrometer equipped with a Peltier temperature controller (Applied Photophysics, UK). The CD (circular dichroism) spectra of samples were analyzed in a range of 190-260 nm using a cuvette having a path length of 2 mm. The molar residue ellipticity of the samples was calculated per amino acid residue. All mouse experiments were conducted under an animal protocol approved by the Catholic University of Korea on Laboratory Animal Care (2020-0359-05).
It was confirmed from the foregoing experiment that the cyclic peptides prepared in Examples 2-1 to 2-3 form vesicular self-assembled structure when stored in distilled water (DW). The average hydrodynamic diameter (Dn) of the self-assembled structures was measured by dynamic light scattering (DLS) at different temperatures (20° C., 30° C., 40° C.).

SCC7 cells [2] = experiment: Photodynamic killing of cancer cells, MTT assay after laser irradiation; type: cell-based; details: 24 hours, IR laser 671 nm 1.59 J/cm^2, peptidesome in DW
Experimental: SSC7 (squamous cell carcinoma 7) cells were treated with free Pa or the coassembled peptidesome of Example 4-6d (R6:RGD2<-Pa) (1:9) at 30 μM for 24 hours, followed by infrared (IR) laser (671 nm) irradiation at 1.59 J/cm^2. Cytotoxicity as a measure of the photodynamic killing of the cancer cells was determined by MTT assay.
As the samples, 2 μg/mL of free Pa, 2 μg/mL of the coassembled peptidesome of Example 4-6d (R6:RGD2<-Pa) (1:9) (G&G) and 2 μg/mL of the coassembled peptidesome of Example 4-6d (R6:RGD2<-Pa) (1:9) (DW) were used. DW means that distilled water was used instead of the G&G solution.

[3] = cited from earlier work
SCC7 cells [4] = experiment: Cellular uptake by CLSM and flow cytometry (FACS); type: cell-based; details: 2 μg/mL, 4 hours
Experimental: Analysis of intracellular delivery efficiency and FACS in vitro Cellular uptake of materials in SCC7 cells was analyzed based on the intrinsic fluorescence of Pa via CLSM (LSM700, Carl Zeiss, Germany) and flow cytometry (FACS Canto II, BD Biosciences, Bedford, MA, USA). SCC7 cells were seeded onto a 24-well plate at a density of 5×10^4 and incubated overnight. Then, […] of a sample was added to […] of a culture medium for each well. The cells were treated with the sample for 4 hours. Then, the sample was removed and the cells were washed. For cell imaging, cell nuclei were stained with Hoechst 33342.
SCC7 cells were seeded in a 24-well plate at a density of 5×10^4 and incubated overnight. Then, […] of the sample was added to […] of a culture medium. The cells were treated with the sample for 4 hours, followed by removal of the sample and washing. For cell imaging, the cell nuclei were stained with Hoechst 33342. The uptake of materials by the SCC7 cells was analyzed based on the intrinsic fluorescence of Pa via CLSM (LSM700, Carl Zeiss, Germany) and flow cytometry (FACS Canto II, BD Biosciences, Bedford, MA, USA).
As the samples, 2 μg/mL of free Pa, 2 μg/mL of the coassembled peptidesome of Example 4-6d (R6:RGD2<-Pa) (1:9) (G&G) and 2 μg/mL of the coassembled peptidesome of Example 4-6d (R6:RGD2<-Pa) (1:9) (DW) were used. […]

SCC7 cell-derived cancer = experiment: In-vivo antitumor efficacy (PDT) in xenograft mouse model; details: after 14 days
Experimental: SCC7 tumor-bearing mouse models were prepared similarly to the biodistribution analysis. When the tumor volume reached approximately 50 mm^3, the sample was intravenously injected into the xenograft mice. 3 hours after the sample injection, NIR laser (671 nm) was irradiated to the tumor site with a power of 0.53 W/cm^2 for 15 minutes, and the same sample injection and NIR irradiation were repeated on the next day. The tumor volume and body weight were recorded every two days. At the end of the therapy, major organs and tumors were dissected for histological analysis. […]
Squamous cell carcinoma 7 (SSC7) cells were cultured in an RPMI 1640 medium containing 10% FBS, 1% L-glutamine, 1% penicillin, streptomycin, etc. in a 37° C. incubator maintained at 5% carbon dioxide. The cultured cells were detached from the bottom of the flask using trypsin/EDTA and cell viability was evaluated by trypan blue exclusion assay. […]
After the injection of the sample to each group, tumor volume and body weight were recorded 2 days, 4 days, 6 days, 8 days, 10 days, 12 days and 14 days later. […] The organs and cancer tissues were fixed, prepared into cryosections, stained with hematoxylin and eosin (H&E) and observed with a fluorescence microscope (Axiolmager A1, Zeiss, Germany).

| average diameter of peptidesome (DLS) [1] | Compound | PDT effect (cell viability after laser irradiation) (SCC7 cells [2]) | water solubility [3] [g/L] | cell internalization efficiency of free Pa relative to the coassembled peptidesome (SCC7 cells [4]) [fold] | weight of the excised tumor (SCC7 cell-derived cancer; 2 mg/kg, tail vein, NIR laser) | excised tumor weight of free Pa group relative to peptidesome<-Pa(G&G) group (SCC7 cell-derived cancer) |
| --- | --- | --- | --- | --- | --- | --- |
| 99-127 nm | CCCCCCCCCCCC(=O)N[C@H]1CCCCNC(=O)[C@H](Cc2c[nH]c3ccccc23)NC(=O)CCC(=O)NCCOCCOCCNC(=O)[C@H](CCCNC(=N)N)NC(=O)[C@H](CCCNC(=N)N)NC(=O)CCC(=O)NCCOCCOCCNC(=O)[C@H](Cc2c[nH]c3ccccc23)NC1=O [Example 2-1] |  |  |  |  |  |
|  | pheophorbide a [free Pa] | dose-dependent PDT effect | 0.014 | 5 | 1,222 mg | approximately 3 times |
